Source: BigSolDB 2.1

CC(C)=CCC[C@@H](C)[C@H]1CC[C@@]2(C)C3=C(CC[C@]12C)[C@@]1(C)CC[C@H](O)C(C)(C)[C@@H]1CC3
Conditions	solubility (mole fraction)
in DMF, 277.15 K	0.00035
in DMF, 284.65 K	0.00051
in DMF, 289.15 K	0.00063
in DMF, 294.65 K	0.00073
in DMF, 297.35 K	0.00089
in DMF, 300.15 K	0.00103
in DMF, 303.05 K	0.00138
in DMF, 308.46 K	0.00187
in DMF, 318.55 K	0.00294
in DMSO, 293.95 K	0.00015
in DMSO, 297.65 K	0.00019
in DMSO, 302.35 K	0.00024
in DMSO, 307.15 K	0.00031
in DMSO, 312.95 K	0.00042
in DMSO, 318.69 K	0.00057
in DMSO, 337.99 K	0.00136
in acetone, 278.65 K	0.00066
in acetone, 283.75 K	0.00087
in acetone, 288.45 K	0.00105
in acetone, 293.25 K	0.00127
in acetone, 298.05 K	0.00157
in acetone, 302.75 K	0.00193
in acetone, 307.55 K	0.00237
in acetone, 318.36 K	0.0036
in acetonitrile, 277.09 K	3e-05
in acetonitrile, 288.55 K	6e-05
in acetonitrile, 293.35 K	9e-05
in acetonitrile, 298.15 K	0.00013
in acetonitrile, 303.05 K	0.00015
in acetonitrile, 307.55 K	0.00019
in acetonitrile, 312.25 K	0.00026
in acetonitrile, 317.05 K	0.00038
in ethanol, 277.95 K	0.00036
in ethanol, 285.74 K	0.00053
in ethanol, 293.45 K	0.00075
in ethanol, 298.25 K	0.00092
in ethanol, 307.15 K	0.00135
in ethanol, 312.35 K	0.00168
in ethanol, 318.05 K	0.00214
in ethyl acetate, 277.67 K	0.00076
in ethyl acetate, 288.55 K	0.00127
in ethyl acetate, 293.25 K	0.00165
in ethyl acetate, 298.05 K	0.00187
in ethyl acetate, 302.85 K	0.00235
in ethyl acetate, 307.45 K	0.00284
in ethyl acetate, 318.64 K	0.00443
in isopropanol, 278.07 K	0.00047
in isopropanol, 287.81 K	0.0006
in isopropanol, 298.84 K	0.00095
in isopropanol, 307.27 K	0.00159
in methanol, 277.78 K	3e-05
in methanol, 288.15 K	5e-05
in methanol, 298.15 K	9e-05
in methanol, 303.05 K	0.00011
in methanol, 312.15 K	0.00016
in methanol, 316.95 K	0.00021
in methanol, 321.65 K	0.00032
in n-propanol, 278.07 K	0.0009
in n-propanol, 287.81 K	0.00144
in n-propanol, 298.84 K	0.00209
in n-propanol, 307.27 K	0.00304
in n-propanol, 318.93 K	0.00478
